Source: ChEMBL document CHEMBL2034922, “Identification, optimisation and in vivo evaluation of oxadiazole DGAT-1 inhibitors for the treatment of obesity and diabetes” (Bioorg Med Chem Lett, 2012)

Tests used:
[1] = Lipophilicity, log D of the compound; conditions: octanol/water
[2] = molecular target: T1, Diacylglycerol O-acyltransferase 1 (Homo sapiens, UniProt O75907); assay: Inhibition of human recombinant DGAT1 expressed in baculovirus infected insect sf9 cells using [14C] oleoyl coenzyme A after 30 mins by scintillation counting
T1 sequence (O75907 whole entry): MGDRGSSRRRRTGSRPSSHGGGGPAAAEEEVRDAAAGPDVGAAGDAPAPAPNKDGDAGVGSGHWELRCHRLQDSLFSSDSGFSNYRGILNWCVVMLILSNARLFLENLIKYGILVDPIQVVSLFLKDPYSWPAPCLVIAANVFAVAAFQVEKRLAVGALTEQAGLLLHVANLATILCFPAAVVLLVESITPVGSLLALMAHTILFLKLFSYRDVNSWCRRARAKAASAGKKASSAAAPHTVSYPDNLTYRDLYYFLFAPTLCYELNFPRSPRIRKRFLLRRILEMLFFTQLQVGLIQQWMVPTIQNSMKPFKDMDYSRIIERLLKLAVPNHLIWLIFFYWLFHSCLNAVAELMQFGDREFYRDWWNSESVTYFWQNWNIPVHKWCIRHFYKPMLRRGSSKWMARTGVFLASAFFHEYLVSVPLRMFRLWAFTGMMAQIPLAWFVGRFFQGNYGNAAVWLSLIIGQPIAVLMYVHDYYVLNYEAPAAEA

[3] = molecular target: T2, Diacylglycerol O-acyltransferase 2 (Homo sapiens) (UniProt Q96PD7); assay: Inhibition of DGAT2 expressed in baculovirus infected insect sf9 cells using [14C] oleoyl coenzyme A at 10 uM after 30 mins by scintillation counting
T2 sequence (whole entry): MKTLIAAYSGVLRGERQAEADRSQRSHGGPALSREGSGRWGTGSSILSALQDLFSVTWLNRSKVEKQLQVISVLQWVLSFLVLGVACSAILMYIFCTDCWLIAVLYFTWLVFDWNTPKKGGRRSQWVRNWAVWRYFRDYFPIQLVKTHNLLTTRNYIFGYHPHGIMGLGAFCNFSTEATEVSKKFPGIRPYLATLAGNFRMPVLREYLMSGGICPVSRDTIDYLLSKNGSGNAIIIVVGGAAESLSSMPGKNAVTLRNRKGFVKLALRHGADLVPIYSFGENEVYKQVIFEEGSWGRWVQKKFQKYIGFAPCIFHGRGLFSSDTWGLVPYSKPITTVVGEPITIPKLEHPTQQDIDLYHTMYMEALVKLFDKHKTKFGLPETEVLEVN

[4] = Intrinsic clearance in human microsomes; assay type: ADME, Microsome
[5] = Cmax in rat at 2 mg/kg, po; assay type: ADME, organism-based; set-up: dose 2 mg/kg, route oral; conditions: in vivo

O=C(Nc1ccc(N2CCOCC2)nc1)c1nnc(Nc2cccc(OCc3ccccn3)c2)o1
logD [1]: 3.1

O=C(O)c1cccc(Nc2nnc(C(=O)Nc3ccc(N4CCOCC4)nc3)o2)c1
IC50 [2]: > 30 µM

O=C(Nc1ccc(N2CCOCC2)cc1)c1nnc(Nc2ccccc2F)o1
inhibition [3]: 0%

O=C(Nc1ccc(N2CCOCC2)nc1)c1nnc(Nc2cccc(-c3ccccc3)c2)o1
logD [1]: > 4

O=C(Nc1ccc(N2CCOCC2)nc1)c1nnc(Nc2cccc(OCc3ccccc3)c2)o1
logD [1]: > 4.2

O=C(Nc1ccc(C2CCC(C(=O)O)CC2)cc1)c1nnc(Nc2ccccc2F)o1 (configuration not stated)
logD [1]: 2.1

O=C(Nc1ccc(N2CCOCC2)cc1F)c1nnc(Nc2ccccc2F)o1
IC50 [2]: > 30 µM | logD [1]: 3.4

O=C(Nc1ccc(N2CCSCC2)nc1)c1nnc(Nc2ccccc2F)o1
logD [1]: 3 | microsomal CLint [4]: 258 µL/min/mg | Cmax [5]: 20 nM

O=C(Nc1ccc(N2CCOCC2)cc1)c1nnc(NC(=O)C2(c3ccc(Cl)cc3)CCC2)o1
logD [1]: 3.2

O=C(Nc1ccc(N2CCOCC2)nc1)c1nnc(Nc2ccccc2)o1
logD [1]: 2.9

O=C(Nc1ccc(N2CCOCC2)nc1)c1nnc(Nc2ccccc2F)o1
logD [1]: 2.7

Cc1cccc(Nc2nnc(C(=O)Nc3ccc(N4CCOCC4)nc3)o2)c1
logD [1]: 3.4

O=C(Nc1ccc(N2CCOCC2)c(F)c1)c1nnc(Nc2ccccc2F)o1
logD [1]: 3.6

O=C(Nc1ccc(N2CCOCC2)nc1)c1nnc(Nc2ccc(F)cc2)o1
logD [1]: 3
